Target: 72 kDa type IV collagenase (Homo sapiens, UniProt P08253)
Assay: Inhibition of recombinant MMP2

72 kDa type IV collagenase, sequence (P08253 whole entry): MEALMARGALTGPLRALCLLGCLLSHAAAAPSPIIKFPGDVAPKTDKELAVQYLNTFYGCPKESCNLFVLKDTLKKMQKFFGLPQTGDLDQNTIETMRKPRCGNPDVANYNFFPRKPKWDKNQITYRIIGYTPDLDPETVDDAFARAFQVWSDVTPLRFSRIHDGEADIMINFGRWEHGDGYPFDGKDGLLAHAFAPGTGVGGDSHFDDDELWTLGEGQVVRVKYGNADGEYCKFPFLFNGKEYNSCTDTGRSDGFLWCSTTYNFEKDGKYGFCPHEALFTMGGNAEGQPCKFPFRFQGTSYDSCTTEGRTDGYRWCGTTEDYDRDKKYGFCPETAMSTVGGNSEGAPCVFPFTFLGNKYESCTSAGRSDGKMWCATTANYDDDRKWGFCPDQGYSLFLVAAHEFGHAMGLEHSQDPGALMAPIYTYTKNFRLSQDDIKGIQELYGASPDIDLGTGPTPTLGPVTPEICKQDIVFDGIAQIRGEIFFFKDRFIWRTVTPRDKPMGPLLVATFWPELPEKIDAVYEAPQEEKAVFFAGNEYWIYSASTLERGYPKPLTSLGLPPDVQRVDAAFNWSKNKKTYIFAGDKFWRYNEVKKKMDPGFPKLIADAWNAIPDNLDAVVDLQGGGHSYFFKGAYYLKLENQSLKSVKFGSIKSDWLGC

## CCCCCCC(O)CCCCCCCCCCCOS(=O)(=O)O (stereo unspecified)
  IC50: 23.2 µM

Source: ChEMBL document CHEMBL1150172, “Sodium 1-(12-hydroxy)octadecanyl sulfate, an MMP2 inhibitor, isolated from a tunicate of the family Polyclinidae” (J Nat Prod, 2002)
